Test results from US8404680B2, “N-[3-(5-amino-3,3a,7,7a-tetrahydro-1H-2,4-dioxa-6-aza-inden-7-yl)-phenyl]-amides as BACE1 and/or BACE2 inhibitors” (Hoffmann-La Roche Inc., priority 2011, dated 2013).

Key:
BACE1 = biological target: T1, BACE1 (Homo sapiens, UniProt P56817); experiment: Cellular Aβ-lowering assay; format: cell-based; settings: human HEK293 cells stably expressing human APP wt (APP695); Aβ40 in supernatant by ELISA after 18-20 hrs
T1 construct: Human HEK293 cells which are stably transfected with a vector expressing a cDNA of the human APP wt gene (APP695); endogenous in cells; host or cells: HEK293 (human), stably transfected with human APP695 wt
T1 sequence (P56817 46-501): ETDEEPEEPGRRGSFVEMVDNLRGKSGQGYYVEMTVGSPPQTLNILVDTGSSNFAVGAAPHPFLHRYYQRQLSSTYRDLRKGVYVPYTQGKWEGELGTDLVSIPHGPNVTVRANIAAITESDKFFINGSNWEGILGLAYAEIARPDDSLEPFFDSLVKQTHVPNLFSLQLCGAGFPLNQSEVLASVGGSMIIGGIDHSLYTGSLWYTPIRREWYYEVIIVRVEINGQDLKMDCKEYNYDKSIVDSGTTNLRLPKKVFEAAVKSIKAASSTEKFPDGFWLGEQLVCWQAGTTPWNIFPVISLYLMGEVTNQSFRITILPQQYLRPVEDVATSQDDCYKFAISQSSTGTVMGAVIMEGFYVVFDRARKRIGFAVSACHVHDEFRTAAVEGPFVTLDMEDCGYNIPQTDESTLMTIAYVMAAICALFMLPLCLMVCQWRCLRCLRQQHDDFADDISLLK
Experimental: Cellular Aβ-Lowering Assay:
Human HEK293 cells which are stably transfected with a vector expressing a cDNA of the human APP wt gene (APP695) were used to assess the potency of the compounds in a cellular assay. The cells were seeded in 96-well microtiter plates in cell culture medium (Iscove, plus 10% (v/v) fetal bovine serum, glutamine, penicillin/streptomycin) to about 80% confluence and the compounds were added at a 10× concentration in 1/10 volume of medium without FCS containing 8% DMSO (final concentration of DMSO was kept at 0.8% v/v). After 18-20 hrs incubation at 37° C. and 5% CO2 in a humidified incubator the culture supernatant was harvested for the determination of Aβ40 concentrations. 96well ELISA plates (e.g., Nunc MaxiSorb) were coated with monoclonal antibody which specifically recognize the C-terminal end of Aβ40 (Brockhaus et al., NeuroReport 9, 1481-1486; 1998). After blocking of non-specific binding sites with e.g. 1% BSA and washing, the culture supernatants were added in suitable dilutions together with a horseradish peroxidase-coupled Aβ detection antibody (e.g., antibody 4G8, Senetek, Md. Heights, Mo.) and incubated for 5 to 7 hrs. Subsequently the wells of the microtiter plate were washed extensively with Tris-buffered saline containing 0.05% Tween 20 and the assay was developed with tetramethylbenzidine/H2O2 in citric acid buffer. After stopping the reaction with one volume 1 NH2SO4 the reaction was measured in an ELISA reader at 450 nm wavelength. The concentrations of Aβ in the culture supernatants were calculated from a standard curve obtained with known amounts of pure Aβ peptide.

BACE2 = biological target: T2, BACE2 (Rattus norvegicus, UniProt Q6IE75); experiment: Assay for BACE inhibition by measuring cellular TMEM27 cleavage; format: cell-based; settings: INS-TMEM27 (INS1e-derived rat cell line, inducible hTMEM27); shed TMEM27 in medium by ELISA
T2 construct: endogenous cellular BACE2 in the Ins1e rat cell line; endogenous in cells; host or cells: INS-TMEM27 (INS1e-derived rat cell line, TetOn-inducible full-length hTMEM27)
T2 sequence (Q6IE75 63-514): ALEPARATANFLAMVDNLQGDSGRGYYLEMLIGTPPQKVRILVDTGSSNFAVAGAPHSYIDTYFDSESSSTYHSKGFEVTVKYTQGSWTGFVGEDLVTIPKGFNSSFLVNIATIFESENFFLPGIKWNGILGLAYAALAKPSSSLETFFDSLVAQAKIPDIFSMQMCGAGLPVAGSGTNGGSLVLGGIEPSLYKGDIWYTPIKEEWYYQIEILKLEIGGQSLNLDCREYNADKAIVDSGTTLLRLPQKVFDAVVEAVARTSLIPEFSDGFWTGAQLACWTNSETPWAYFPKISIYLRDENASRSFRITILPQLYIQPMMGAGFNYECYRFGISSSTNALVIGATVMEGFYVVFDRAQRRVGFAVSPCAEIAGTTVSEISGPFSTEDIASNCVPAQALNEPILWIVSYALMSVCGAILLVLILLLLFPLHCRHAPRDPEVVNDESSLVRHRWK
Description: Assay for BACE Inhibition by Measuring Cellular TMEM27 Cleavage:
The assay uses the principle of inhibition of human TMEM27 cleavage by endogenous cellular BACE2 in the Ins1e rat cell line and shedding from the cell surface into the culture medium, followed by detection in an ELISA assay Inhibition of BACE2 prevents the cleavage and shedding in a dose-dependent manner.
The stable cell line “INS-TMEM27” represents an INS1e-derived cell line with inducible expression (using the TetOn system) of full-length hTMEM27 in a doxycycline-dependent manner. The cells are cultured throughout the experiment in RPMI1640+ Glutamax (Invitrogen) Penicillin/Streptomycin, 10% Fetal bovine serum, […], […], 100 micrograms/ml G418 and 100 microgram/ml hygromycin and are grown inadherent culture at 37° C. in a standard CO2 cell culture incubator.
INS-TMEM27 cells are seeded in 96-well plates. After 2 days in culture, BACE2 inhibitor is added in a range of concentrations as required by the assay and after a further two hours, doxycycline is added to a final concentration of 500 ng/ml. The cells are incubated for a further 46 hours and the supernatant harvested for detection of shed TMEM27.
An ELISA assay (using a pair of mouse anti-human-TMEM27 antibodies, raised against the extracellular domain of TMEM27) is used for detection of TMEM27 in the culture medium. An EC50 for BACE2 inhibition is calculated using the ELISA readout for each inhibitor concentration with standard curve-fitting software such as XLFit for the Excel spreadsheet program.

NC1=N[C@@](c2cc(NC(=O)c3ccc(Cl)cn3)ccc2F)(C(F)F)[C@H]2COC[C@H]2O1 [Example 16, 5-Chloro-pyridine-2-carboxylic acid [3-((3aS,7S,7aS)-5-amino-7-difluoromethyl-3,3a,7,7a-tetrahydro-1H-2,4-dioxa-6-aza-inden-7-yl)-4-fluoro-phenyl]-amide]
IC50 (BACE1): 5.5 nM

C[C@]1(c2cc(NC(=O)c3ccc(F)cn3)ccc2F)N=C(N)O[C@@H]2COC[C@@H]21 [Example 3, 5-Fluoro-pyridine-2-carboxylic acid [3-((3aS,7S,7aS)-5-amino-7-methyl-3,3a,7,7a-tetrahydro-4H-2,4-dioxa-6-aza-inden-7-yl)-4-fluoro-phenyl]-amide]
IC50 (BACE1): 2.5 nM | IC50 (BACE2): 18 nM

C[C@]1(c2cc(NC(=O)c3ccc(Cl)cn3)ccc2F)N=C(N)O[C@@H]2COC[C@@H]21 [Example 1, 5-Chloro-pyridine-2-carboxylic acid [3-((3aS,7S,7aS)-5-amino-7-methyl-3,3a,7,7a-tetrahydro-1H-2,4-dioxa-6-aza-inden-7-yl)-4-fluoro-phenyl]-amide]
IC50 (BACE1): 0.7 nM | IC50 (BACE2): 36 nM

C[C@]1(c2cc(NC(=O)c3ccccn3)ccc2F)N=C(N)O[C@@H]2COC[C@@H]21 [Example 5, Pyridine-2-carboxylic acid [3-((3aS,7S,7aS)-5-amino-7-methyl-3,3a,7,7a-tetrahydro-4H-2,4-dioxa-6-aza-inden-7-yl)-4-fluoro-phenyl]-amide]
IC50 (BACE1): 8 nM | IC50 (BACE2): 37 nM

NC1=N[C@](CF)(c2cc(NC(=O)c3ccc(Cl)cn3)ccc2F)[C@H]2COC[C@H]2O1 [Example 14, 5-Chloro-pyridine-2-carboxylic acid [3-((3aS,7S,7aS)-5-amino-7-fluoromethyl-3,3a,7,7a-tetrahydro-1H-2,4-dioxa-6-aza-inden-7-yl)-4-fluoro-phenyl]-amide]
IC50 (BACE1): 1 nM

C[C@]1(c2cc(NC(=O)c3ccc(OCC(F)(F)C(F)F)cn3)ccc2F)N=C(N)O[C@@H]2COC[C@@H]21 [Example 11, 5-(2,2,3,3-Tetrafluoro-propoxy)-pyridine-2-carboxylic acid [3-((3aS,7S,7aS)-5-amino-7-methyl-3,3a,7,7a-tetrahydro-1H-2,4-dioxa-6-aza-inden-7-yl)-4-fluoro-phenyl]-amide]
IC50 (BACE1): 5 nM

C[C@]1(c2cc(NC(=O)c3ccc(C#N)cn3)ccc2F)N=C(N)O[C@]2(C(F)(F)F)COC[C@H]12 (racemic) [Example 22, N-(3-((4SR,4aSR,7aSR)-2-amino-4-methyl-7a-(trifluoromethyl)-4a,5,7,7a-tetrahydro-4H-furo[3,4-e][1,3]oxazin-4-yl)-4-fluorophenyl)-5-cyanopicolinamide]
IC50 (BACE1): 7 nM

C[C@]1(c2cc(NC(=O)c3ncc(Cl)cc3Cl)ccc2F)N=C(N)O[C@@H]2COC[C@@H]21 [Example 2, 3,5-Dichloro-pyridine-2-carboxylic acid [3-((3aS,7S,7aS)-5-amino-7-methyl-3,3a,7,7a-tetrahydro-1H-2,4-dioxa-6-aza-inden-7-yl)-4-fluoro-phenyl]-amide]
IC50 (BACE1): 0.8 nM | IC50 (BACE2): 14 nM

CC#CCOc1ccc(C(=O)Nc2ccc(F)c([C@@]3(C)N=C(N)O[C@@H]4COC[C@@H]43)c2)nc1 [Example 10, 5-But-2-ynyloxy-pyridine-2-carboxylic acid [3-((3aS,7S,7aS)-5-amino-7-methyl-3,3a,7,7a-tetrahydro-1H-2,4-dioxa-6-aza-inden-7-yl)-4-fluoro-phenyl]-amide]
IC50 (BACE1): 0.1 nM

C[C@]1(c2cc(NC(=O)c3ccc(C#N)cn3)ccc2F)N=C(N)O[C@]2(C(F)(F)F)COC[C@H]12 (relative stereo) [Example 19, N-(3-(rel-(4SR,4aSR,7aSR)-2-amino-4-methyl-7a-(trifluoromethyl)-4a,5,7,7a-tetrahydro-4H-furo[3,4-e][1,3]oxazin-4-yl)-4-fluorophenyl)-5-cyanopicolinamide]
IC50 (BACE1): 9 nM

N#Cc1ccc(C(=O)Nc2ccc(F)c([C@@]3(CF)N=C(N)O[C@@H]4COC[C@@H]43)c2)nc1 [Example 13, 5-Cyano-pyridine-2-carboxylic acid [3-((3aS,7S,7aS)-5-amino-7-fluoromethyl-3,3a,7,7a-tetrahydro-1H-2,4-dioxa-6-aza-inden-7-yl)-4-fluoro-phenyl]-amide]
IC50 (BACE1): 1 nM

C[C@]1(c2cc(NC(=O)c3ncc(C#N)cc3Cl)ccc2F)N=C(N)O[C@@H]2COC[C@@H]21 [Example 12, N-(3-((4S,4aS,7aS)-2-amino-4-methyl-4a,5,7,7a-tetrahydro-4H-furo[3,4-e][1,3]oxazin-4-yl)-4-fluorophenyl)-3-chloro-5-cyanopicolinamide]
IC50 (BACE1): 1 nM

C[C@]1(c2cc(NC(=O)c3ccc(C#N)cn3)ccc2F)N=C(N)O[C@@H]2COC[C@@H]21 [Example 4, 5-Cyano-pyridine-2-carboxylic acid [3-((3aS,7S,7aS)-5-amino-7-methyl-3,3a,7,7a-tetrahydro-4H-2,4-dioxa-6-aza-inden-7-yl)-4-fluoro-phenyl]-amide]
IC50 (BACE2): 17 nM

CC#CCOc1cnc(C(=O)Nc2ccc(F)c([C@@]3(C)N=C(N)O[C@]4(C(F)(F)F)COC[C@H]34)c2)cn1 (relative stereo) [Example 20, N-(3-(rel-(4SR,4aSR,7aSR)-2-amino-4-methyl-7a-(trifluoromethyl)-4a,5,7,7a-tetrahydro-4H-furo[3,4-e][1,3]oxazin-4-yl)-4-fluorophenyl)-5-(but-2-ynyloxy)pyrazine-2-carboxamide]
IC50 (BACE1): 7 nM

CC#CCOc1cnc(C(=O)Nc2ccc(F)c([C@@]3(C)N=C(N)O[C@@H]4COC[C@@H]43)c2)cn1 [Example 7, 5-But-2-ynyloxy-pyrazine-2-carboxylic acid [3-((3aS,7S,7aS)-5-amino-7-methyl-3,3a,7,7a-tetrahydro-4H-2,4-dioxa-6-aza-inden-7-yl)-4-fluoro-phenyl]-amide]
IC50 (BACE2): 47 nM

NC1=N[C@](CF)(c2cc(NC(=O)c3ccc(F)cn3)ccc2F)[C@H]2COC[C@H]2O1 [Example 15, 5-Fluoro-pyridine-2-carboxylic acid [3-((3aS,7S,7aS)-5-amino-7-fluoromethyl-3,3a,7,7a-tetrahydro-1H-2,4-dioxa-6-aza-inden-7-yl)-4-fluoro-phenyl]-amide]
IC50 (BACE1): 2.5 nM

C[C@]1(c2cc(NC(=O)c3ccc(Cl)cn3)ccc2F)N=C(N)O[C@]2(C(F)(F)F)COC[C@H]12 (racemic) [Example 21, N-(3-((4SR,4aSR,7aSR)-2-amino-4-methyl-7a-(trifluoromethyl)-4a,5,7,7a-tetrahydro-4H-furo[3,4-e][1,3]oxazin-4-yl)-4-fluorophenyl)-5-chloropicolinamide]
IC50 (BACE1): 34 nM

C[C@]1(c2cc(NC(=O)c3ccc(OCC4CC4)cn3)ccc2F)N=C(N)O[C@@H]2COC[C@@H]21 [Example 9, 5-Cyclopropylmethoxy-pyridine-2-carboxylic acid [3-((3aS,7S,7aS)-5-amino-7-methyl-3,3a,7,7a-tetrahydro-1H-2,4-dioxa-6-aza-inden-7-yl)-4-fluoro-phenyl]-amide]
IC50 (BACE1): 5 nM
